Measurements published in patent publication US10072045B1, “Antibacterial lipopeptides and methods for their preparation and use” (priority 2017, dated 2018).
Converted amounts (≈) assume the structure as drawn. Like-named read-outs stand apart in the source and are kept apart here.

Key:
Assay type in all cases: cell-based
[1] = system: Vancomycin-Resistant Enterococci faecalis (VRE, ATCC 51299); assay: microbe, parasite or virus in culture
Experimental: (§1) See, Balouiri, M.; Sadiki, M.; Ibnsouda, S. K.; Methods for In vitro evaluation of antimicrobial activity: review. Journal of Pharmaceutical Analysis, 2016, 6 (2), 71-79; CLSI, Methods for Dilution Antimicrobial Susceptibility Tests for Bacteria that Grow Aerobically, Approved Standard, 9th Ed, CLSI document M07-A9. Approximately 50 μl of the bacterial (MRSA or MSSA) cell suspension (1.0×10^6/ml) inoculated in each well (96-micro well plate) containing 50 μl of dosing solution and plates were incubated at 37±+1C for 18 hrs. After the incubation, bacterial growth in each well of 96-well plate were calorimetrically measured by a Biotek microtiter plate reader at 630 nm. The bacterial growth inhibition (GI) is expressed as a percentage relative to the negative control.
(§2) Vancomycin-Resistant Enterococci faecalis (VRE, ATCC 51299);

[2] = system: Vancomycin-Sensitive Enterococci hirae (VSE, ATCC 1056); assay: microbe, parasite or virus in culture
Experimental: as §1
Vancomycin-Sensitive Enterococci hirae (VSE, ATCC 1056).

[3] = system: Vancomycin-Sensitive Enterococci faecalis (VSE, ATCC 29212); assay: microbe, parasite or virus in culture
Experimental: as §1
Vancomycin-Sensitive Enterococci faecalis (VSE, ATCC 29212);

[4] = system: Vancomycin-Resistant Enterococci faecium (VRE, ATCC 700221); assay: microbe, parasite or virus in culture
Experimental: as §1
(§3) Vancomycin-Resistant Enterococci faecium (VRE, ATCC 700221);

[5] = system: Methicillin-Resistant Staphylococcus aureus (MRSA, PBR Lab Culture#1152); assay: microbe, parasite or virus in culture; settings: Test B, read-out: Minimum Inhibitory Concentration (MIC) MRSA (PBR1152)
Experimental: as §1
Methicillin-Resistant Staphylococcus aureus (MRSA, PBR Lab Culture#1152)

[6] = system: Methicillin-Resistant Staphylococcus aureus (MRSA, ATCC33591); assay: microbe, parasite or virus in culture; settings: for potency relative to daptomycin against MRSA: fold as potent as daptomycin
Experimental: as §1
Methicillin-Resistant Staphylococcus aureus (MRSA, ATCC33591)

[7] = system: Methicillin-Sensitive Staphylococcus aureus (MSSA, ATCC6538); assay: microbe, parasite or virus in culture; settings: read-out: Minimum Inhibitory Concentration (MIC) MSSA (ATCC6538)
Experimental: as §1
Methicillin-Sensitive Staphylococcus aureus (MSSA, ATCC6538)

[8] = system: Vancomycin-Resistant Enterococci (VRE); assay: Potency against VRE relative to daptomycin (Test C); settings: fold better potency; strain not specified
Experimental: as §1, §3, §2

| SMILES | Minimum Inhibitory Concentration (MIC) VRE (ATCC 51299) [1] [µM] | Minimum Inhibitory Concentration (MIC) VSE (ATCC 1056) [2] [µM] | Minimum Inhibitory Concentration (MIC) VSE (ATCC 29212) [3] [µM] | Minimum Inhibitory Concentration (MIC) VRE (ATCC 700221) [4] [µM] | other results |
| --- | --- | --- | --- | --- | --- |
| CCCCCCCCCC(=O)N[C@@H](Cc1c[nH]c2ccccc12)C(=O)N[C@H](CC(N)=O)C(=O)N[C@@H](CC(=O)O)C(=O)N[C@@H]1C(=O)NCC(=O)N[C@@H](CCCN)C(=O)N[C@@H](CC(=O)O)C(=O)N[C@H](C)C(=O)N[C@@H](CC(=O)O)C(=O)NCC(=O)N[C@H](CO)C(=O)N[C@@H]([C@H](C)CC(=O)O)C(=O)N[C@@H](CC(=O)c2ccccc2N)C(=O)O[C@@H]1C [Daptomycin, reference compound] | 1.25 | 5.0 | 1.25 | 2.5 | – |
| COc1cccc(OC)c1C(=O)N[C@@H]1C(=O)N2[C@@H]1SC(C)(C)[C@@H]2C(=O)O [Methicillin] | – | – | – | – | MIC [5]: > 64 µg/mL; MIC ([6]; Staphylococcus aureus, Test A, read-out: Minimum Inhibitory Concentration (MIC) MRSA (ATCC33591)): > 64 µg/mL; MIC ([7]; Test A): < 1 µg/mL; MIC ([7]; Test B): < 1 µg/mL |
| CCCCCCCCCC(=O)N[C@@H](Cc1c[nH]c2ccccc12)C(=O)N[C@H](CC(N)=O)C(=O)N[C@@H](CC(=O)O)C(=O)N[C@@H]1C(=O)NCC(=O)N[C@@H](CCCN)C(=O)N[C@@H](CC(=O)O)C(=O)N[C@H](C)C(=O)N[C@@H](CC(=O)O)C(=O)NCC(=O)N[C@H](CO)C(=O)N[C@@H]([C@H](C)CC(=O)O)C(=O)N[C@@H](CC(=O)c2ccccc2NCC)C(=O)O[C@@H]1C [RP001] | 0.625 | 5.0 | 0.625 | 1.25 | – |
| CCCCCCCCCC(=O)N[C@@H](Cc1c[nH]c2ccc(F)cc12)C(=O)N[C@H](CC(N)=O)C(=O)N[C@@H](CC(=O)O)C(=O)N[C@@H]1C(=O)NCC(=O)N[C@@H](CCCN)C(=O)N[C@@H](CC(=O)O)C(=O)N[C@H](C)C(=O)N[C@@H](CC(=O)O)C(=O)NCC(=O)N[C@H](CO)C(=O)N[C@@H]([C@H](C)CC(=O)O)C(=O)N[C@@H](CC(=O)c2cc(Cl)cc(Cl)c2NCC)C(=O)O[C@@H]1C [RP005] | <0.156 | <0.156 | <0.156 | <0.156 | potency relative to daptomycin against Vancomycin-Resistant Enterococci (VRE) [8]: roughly 10 fold; potency relative to daptomycin against MRSA [6]: roughly 10 fold |
| CCCCCCCCCC(=O)N[C@@H](Cc1cn(C)c2ccccc12)C(=O)N[C@H](CC(N)=O)C(=O)N[C@@H](CC(=O)O)C(=O)N[C@@H]1C(=O)NCC(=O)N[C@@H](CCCN)C(=O)N[C@@H](CC(=O)O)C(=O)N[C@H](C)C(=O)N[C@@H](CC(=O)O)C(=O)NCC(=O)N[C@H](CO)C(=O)N[C@@H]([C@H](C)CC(=O)O)C(=O)N[C@@H](CC(=O)c2cc(Br)ccc2NCC)C(=O)O[C@@H]1C [RP008] | <0.156 | 0.313 | <0.156 | 0.313 | – |
| CCCCCCCCCC(=O)N[C@@H](Cc1c[nH]c2ccc(C)cc12)C(=O)N[C@H](CC(N)=O)C(=O)N[C@@H](CC(=O)O)C(=O)N[C@@H]1C(=O)NCC(=O)N[C@@H](CCCN)C(=O)N[C@@H](CC(=O)O)C(=O)N[C@H](C)C(=O)N[C@@H](CC(=O)O)C(=O)NCC(=O)N[C@H](CO)C(=O)N[C@@H]([C@H](C)CC(=O)O)C(=O)N[C@@H](CC(=O)c2ccccc2NCC)C(=O)O[C@@H]1C [RP011] | <0.156 | 1.25 | 0.313 | 0.625 | – |
| CCCCCCCCCC(=O)N[C@@H](Cc1c[nH]c2ccc(C)cc12)C(=O)N[C@H](CC(N)=O)C(=O)N[C@@H](CC(=O)O)C(=O)N[C@@H]1C(=O)NCC(=O)N[C@@H](CCCN)C(=O)N[C@@H](CC(=O)O)C(=O)N[C@H](C)C(=O)N[C@@H](CC(=O)O)C(=O)NCC(=O)N[C@H](CO)C(=O)N[C@@H]([C@H](C)CC(=O)O)C(=O)N[C@@H](CC(=O)c2cc(Cl)cc(Cl)c2NCC)C(=O)O[C@@H]1C [RP012] | <0.156 | <0.156 | <0.156 | <0.156 | potency relative to daptomycin against Vancomycin-Resistant Enterococci (VRE) [8]: roughly 10 fold; potency relative to daptomycin against MRSA [6]: roughly 10 fold |
| CN[C@H](CC(C)C)C(=O)N[C@H]1C(=O)N[C@@H](CC(N)=O)C(=O)N[C@H]2C(=O)N[C@H]3C(=O)N[C@H](C(=O)N[C@H](C(=O)O)c4cc(O)cc(O)c4-c4cc3ccc4O)[C@H](O)c3ccc(c(Cl)c3)Oc3cc2cc(c3O[C@@H]2O[C@H](CO)[C@@H](O)[C@H](O)[C@H]2O[C@H]2C[C@](C)(N)[C@H](O)[C@H](C)O2)Oc2ccc(cc2Cl)[C@H]1O [Vacomycin, reference compound] | – | – | – | – | MIC ([1]; Enterococcus, read-out: Minimum Inhibitory Concentration (MIC) VRE (ATCC 51299)): > 10 µM; MIC ([2]; Enterococcus hirae, ATCC1056, read-out: Minimum Inhibitory Concentration (MIC) VSE (ATCC 1056)): 0.313 µM (≈ 0.454 µg/mL); MIC ([3]; Enterococcus faecalis, ATCC29212, read-out: Minimum Inhibitory Concentration (MIC) VSE (ATCC 29212)): 1.25 µM (≈ 1.81 µg/mL); MIC ([4]; Enterococcus, read-out: Minimum Inhibitory Concentration (MIC) VRE (ATCC 700221)): > 10 µM |
